Marks after values point to notes of the source that are not given here.
Key:
[1] = tested on: cancer having at least one molecular alteration in one or more of ALK, ROS1, TrkA, TrkB and TrkC; details: early clinical studies; cited from earlier work
[2] = human, in vivo

Compound: CN1CCN(c2ccc(C(=O)Nc3n[nH]c4ccc(Cc5cc(F)cc(F)c5)cc34)c(NC3CCOCC3)c2)CC1 [Entrectinib, N-[5-(3,5-difluorobenzyl)-1H-indazol-3-yl]-4-(4-methyl-piperazin-1-yl)-2-(tetrahydro-pyran-4-ylamino)-benzamide]
- antitumor effects in patients [1]: antitumor effects
- Dyspnea, Grade ≥3 ([2]; both): 6* %
- Fatal event: completed suicide ([2]; both): 0.3%
- Fatal event: dyspnea ([2]; both): 0.6%
- Fatal event: pneumonia ([2]; both): 0.6%
- Fatal event: sepsis ([2]; both): 0.6%
- Fatal event: tumor lysis syndrome ([2]; both): 0.3%
- Lung infection, Grade ≥3 [2]: 6* %

Reference: patent US20220257592A1, “METHODS OF TREATING CANCER” (HOFFMANN-LA ROCHE INC., priority 2019, published 2022)
